In patent publication US11376278B2, “Compositions and methods for treating disease” (Sulfilatec, Inc., priority 2016, dated 2022):
Where “and” joins values, the source holds several entries; their conditions need not be identical. Equal entries are not always repeated. Entries after “also recorded” stand apart in the source; their conditions may differ.

How the values were obtained:
[1] = tested on: salt sensitive Dahl rats on high salt diet; test: Survival of salt sensitive Dahl rats on high salt (8% NaCl) diet, 10 week study; type: in vivo, rat
Text: Control rats received AIN76A without supplemental chloride or bromide. 9 rats per study arm.
Mortality events were counted over the 10 week study. […] Thus, administration of Br^− and together increased the survival probability of 52% as compared to administration of alone (FIG. 1).

[2] = tested on: humans (sedative, anti-epilepsy effect); details: in vivo; cited from earlier work
dogs (epilepsy) = details: dogs that do not respond to an initial course of Br- treatment; cited from earlier work
[3] = tested on: spontaneously hypertensive rat (SHR) model of cardiovascular disease; test: 10 week repeat dosing study in SHR disease model (organ weights, survival, urinary protein, safety); type: in vivo
Description: (A-B) Heart and kidney weights from 10 week repeat dosing study in SHR model. Br^− administered daily via diet, with AIN-76a as base diet. WKY served as genetic control. Both kidneys per animal weighed together. […] (C-D) Heart and kidney weights from panels A-B normalized to body weight. […] (E) Rats were administered a diet of AIN76A with or without 10 mg NaBr per kg feed (“SHR” and “SHR+Br” study arms, respectively). Survival probability was calculated between SHR rats receiving dietary Br^− and SHR rats receiving AIN76A control diet over a 10 week study period. As a second control, Wistar Kyoto (WKY) rats were fed AIN76A control diet over the same period. 8 rats per study arm.
Eight SHR animals received AIN76A diet for 10 weeks while 8 SHR animals received AIN76A supplemented with 10 mg NaBr/kg diet.

cardiac fibrosis in SHR = test: Cardiac interstitial fibrosis, Masson's Trichrome staining, SHR; type: in vivo, rat; details: male SHR, 10 mg NaBr per kg AIN-76a, oral daily, 10 weeks, p<0.0001
Description: (§1) AIN-76A was base diet for all animals. […] Fibrosis determined from 5 μm tissue sections stained with Masson's Trichrome. […] Approximately 25-30 images were collected and processed per animal.
Following conclusion of the in vivo study, rat hearts were formalin-fixed, paraffin-embedded, and 5 μm-thick sections were obtained for histochemical analysis.

10 week-old male SHR = test: Blood pressure and heart rate (tail cuff) one day after single IP administration in SHR; type: in vivo, rat; details: single IP 154.5 μg NaBr per kg
Description: (A) In 10 week-old male SHR, single administration of Br^− reduced systolic and diastolic blood pressures compared to saline control. […] (C-D) Measured values for systolic (C) and diastolic (D) blood pressure, denoting statistical significance where achieved. 154.5 μg NaBr per kg rat body weight injected via IP. All “Post Administration” data collected one day following administration. n=8 in Br Treatment group, =5 in saline control. BP & HR measured via tail cuff. *:p<0.05, t test.
The inventors next asked whether Br^− exerts any short-term activity in addition to the improved cardiac fibrosis noted after 10 weeks administration. Returning to the SHR preclinical model of disease, the inventors specifically asked whether Br^− administration modulates certain biomarkers associated with cardiovascular disease at one day post-administration. To this end, Br^− was administered to 8 SHR via intraperitoneal (IP) injection with an estimated 0.154 μg NaBr per gram body weight. For control, 8 SHR were administered saline via IP injection containing an estimated 4 ng NaBr per gram body weight. […] Without wishing to be bound by theory, embodiments as described herein can therapeutically improve certain hemodynamic and circulating biomarkers that are associated with progression of cardiovascular and kidney diseases. Moreover, Br^− achieves its cardiovascular and renal therapeutic activities in part via modulation of natriuretic peptide signaling.

[4] = tested on: cardiac fibrosis in salt sensitive Dahl rats on a high salt diet; test: Cardiac interstitial fibrosis, Masson's Trichrome staining, Dahl rats on high salt diet; type: in vivo, rat; details: 300 mg NaBr per kg AIN-76a+8% NaCl, 10 weeks, p<0.0001
Description: as §1

[5] = Serum Br- concentration in Dahl rats after 10 weeks on diet (mass spectrometry); details: AIN-76A+8% NaCl+Br diet
Description: (A) Serum Br^− concentrations from rats fed a daily diet over 10 weeks of “AIN-76A”, “AIN-76A+8% NaCl”, “AIN-76A+Br”, or “AIN-76A+8% NaCl+Br”. […] The two diets containing 8% NaCl (eg. “AIN-76A+8% NaCl” and “AIN-76A+8% NaCl+Br”) were fed to Dahl rats while the remaining two diets (eg. “AIN-76A” and “AIN-76A+Br”) were fed to SHR, as indicated in panel A. Serum Br^− measurements were determined using mass spectrometry.

[6] = Serum Br- concentration in spontaneously hypertensive rats (SHR) after 10 weeks on diet; type: in vivo, rat; details: AIN-76A+Br diet
Description: (A) Serum Br^− concentrations from rats fed a daily diet over 10 weeks of “AIN-76A”, “AIN-76A+8% NaCl”, “AIN-76A+Br”, or “AIN-76A+8% NaCl+Br”. Salt sensitive Dahl rats as well as Spontaneously Hypertensive Rats (SHR) were used in these studies. The two diets containing 8% NaCl (eg. “AIN-76A+8% NaCl” and “AIN-76A+8% NaCl+Br”) were fed to Dahl rats while the remaining two diets (eg. “AIN-76A” and “AIN-76A+Br”) were fed to SHR, as indicated in panel A. Serum Br^− measurements were determined using mass spectrometry.
Rats were administered 10 mg of NaBr per kg of AIN76A diet for 10 weeks. At the end of the study, serum Br^− levels in Br-treated rats were compared to serum Br^− levels in SHR on AIN76A as well as Wistar rats on AIN76A.

[7] = tested on: patients with acute decompensated heart failure; details: cited from earlier work
[8] = tested on: acute heart failure patients; details: acute heart failure patients in Japan; cited from earlier work
[9] = one day post administration, vs saline

Molecule: [Br-].[Na+] [Br^−, sodium bromide]
- increase of survival probability compared to high salt alone ([1]; Dahl rats, 8% NaCl + 300 mg NaBr per kg food vs 8% NaCl, 10 weeks): 52%
- survival probability ([1]; Dahl rats, AIN76A with 8% NaCl and 300 mg NaBr per kg food, 10 week study): 67%
- survival probability vs High Salt alone (log rank test) ([1]; High Salt+Br arm (AIN76A+8% NaCl+300 mg NaBr per kg feed), 9 rats per arm, p<0.001): Significantly greater survival probability
- circulating/serum Br- levels at which the anti-epilepsy effect occurs [2]: > 6 mM and 6 to 12 mM
- therapeutic serum Br- for sedative effect (dogs (epilepsy)): above 25 mM
- survival probability among groups ([3]; SHR+Br vs SHR and WKY, 10 week study, 8 rats per arm): no statistical difference
- absolute heart weight vs SHR on AIN-76a alone ([3]; SHR, 10 mg NaBr/kg diet daily, 10 weeks, p<0.05): significantly reduced; also recorded: Statistically significant reduction
- urinary protein levels ([3]; SHR, 10 mg NaBr/kg diet, through the end of the 10 week study): a difference that persisted
- urinary microprotein/creatinine ratio (urinary protein levels) ([3]; SHR, after one day on study diet (10 mg NaBr/kg)): significantly lower; also recorded: significantly reduced
- cardiac fibrosis (Masson's Trichrome blue staining) (cardiac fibrosis in SHR): dramatic reduction; also recorded: less cardiac fibrosis
- diastolic blood pressure (10 week-old male SHR; [9]): reduced
- systolic blood pressure (10 week-old male SHR; [9]): statistically significant reductions; also recorded: reduced
- heart rate (10 week-old male SHR; one day post, not statistically significant (p=0.052)): possible reduction
- cardiac fibrosis (Masson's Trichrome) [4]: less cardiac fibrosis
- serum Br- concentration, toxicity assessment [5]: non-toxic
- serum Br- concentration, toxicity assessment [6]: non-toxic

Molecule: nesiritide
- mortality [7]: increased mortality
- renal function [7]: worsening renal function

Molecule: CC[C@H](C)[C@@H]1NC(=O)[C@H](CCCNC(=N)N)NC(=O)[C@H](CC(=O)O)NC(=O)[C@H](CCSC)NC(=O)[C@H](CCCNC(=N)N)NC(=O)CNC(=O)CNC(=O)[C@H](Cc2ccccc2)NC(=O)[C@@H](NC(=O)[C@H](CO)NC(=O)[C@H](CO)NC(=O)[C@H](CCCNC(=N)N)NC(=O)[C@H](CCCNC(=N)N)NC(=O)[C@H](CC(C)C)NC(=O)[C@@H](N)CO)CSSC[C@@H](C(=O)N[C@@H](CC(N)=O)C(=O)N[C@@H](CO)C(=O)N[C@@H](Cc2ccccc2)C(=O)N[C@@H](CCCNC(=N)N)C(=O)N[C@@H](Cc2ccc(O)cc2)C(=O)O)NC(=O)CNC(=O)[C@H](CC(C)C)NC(=O)CNC(=O)[C@H](CO)NC(=O)[C@H](CCC(N)=O)NC(=O)[C@H](C)NC(=O)CNC1=O [carperitide]
- in-hospital mortality [8]: increased in-hospital mortality
